The source of these data is US10111897B2, “Compositions and methods for treating cancer with JAK2 activity” (Duke University, priority 2013, dated 2018).

The conditions of test [1]: JAK inhibitor combined with ABT-737; cited from earlier work.
The subject of test [2] is Set2 cells. Briefly: GI50 assay (Cell Titer Glo viability). Format: cell-based, human. To be noted: for sensitivity of parental and engineered Ras effector-activated cells (relative proliferation): Set2 ORF-expressing derivatives; for sensitization of resistant and parental Set2 cells to JAK inhibitors, co-inhibition of Akt and ERK pathways: MK-2206 plus AZD-6244 (2 μM) plus respective JAK inhibitor. The method, then: (§1) Cells were seeded into 6-well plates and infected with the desired ORF activating allele or control vector. Lentiviruses were produced and applied as previously described (42). Following two days of puromycin selection (2 μg/ml), infected cells were seeded into 96-well plates at 5,000 cells/well.
(§2) To generate […] curves, cells were treated with vehicle (DMSO) or an eight-log serial dilution of drug to yield final concentrations of […]. Each treatment condition was represented by at least three replicates. Three to four days after drug addition, cell viability was measured using Cell Titer Glo® (Promega). Relative viability was then calculated by normalizing luminescence values for each treatment condition to control treated wells.
(§3) To generate GI50 curves for drug combinations, slight modifications are made. Primary drug was applied and diluted as above while the second drug was kept at a constant concentration across all wells except the DMSO-only condition. Viability for all primary drug dilutions was then calculated relative to luminescence values from the secondary drug-only condition. Dose-response curves were fit using Graph pad/Prism 6 software.
(In general: Cellular ATP, detected with luciferase, serves as a proxy for viable cell number.)

Test [3] relates to HEL92.1.7 cells. Briefly: GI50 assay (Cell Titer Glo viability). As to conditions: for sensitivity of parental and engineered Ras effector-activated cells (viability and apoptosis): HEL92.1.7 ORF-expressing derivatives, apoptosis at 48 hours; for resensitization of Ras-expressing cells to INCB, dual ERK and Akt inhibition: INCB with both VX-11E (2 μM) and MK-2206 (10 μM). It is filed as cell-based, human. The method, then: as §1, §2, §3

Test [4] relates to BAD. Briefly: BAD phosphorylation immunoblot in HEL92.1.7 derivatives. It is filed as cell-based, human. As to conditions: Ras (G12V)-transduced HEL92.1.7, 6 hours of treatment. How it is done:
FIG. 10. BAD activity, governed by phosphorylation status at Ser 112 and 136, dictates drug sensitivity and induction of apoptosis in both the drug-sensitive and resistant state. (A-C) After 6 hours of treatment with the specified drugs, protein lysates were prepared from either myr-Akt-transduced HEL92.1.7 (A), Ras (G12V)-transduced HEL92.1.7 (B), Set2-Parental, or Set2-CYTR cells (C) and immunoblotted with the indicated antibodies. Blots are representative of three replicate experiments. […] (E, F) HEL92.1.7 derivatives stably expressing the indicated ORFs were transduced with a second ORF expressing either a second control vector or BAD2SA. (E) Twenty-four hours after selection, cells were stained with 7AAD and Annexin V to measure the induction of apoptosis. Error bars indicate SD of three replicate experiments.
Immunoblotting was performed as previously described (42) and membranes were probed with primary antibodies (1:1000 dilution) recognizing p-STAT5, STAT5, p-STAT3, STAT3, BAD, p-BAD Ser112, p-BAD Ser136, p-Akt (Thr308), Akt, p-ERK1/2 (Thr202/Tyr204), ERK1/2, Pim1, BCL-XL, BCL-2, MCL-1, Bim, Bax, Bak, NaATPase, and β-Actin. All antibodies were purchased from Cell Signaling Technology.
In general terms: In western blotting, separated proteins are transferred to a membrane and probed.

Test [5] concerns multiple JAK2^V617F cell lines. To be noted: parental JAK2^V617F cell lines (HEL92.1.7 72 h, Set2 24 h).
From the text: Error bars indicate SD of three replicate experiments. (B) Digitonin-permeabilized HEL92.1.7 cells transduced with the indicated constructs were stained with the mitochondrial potential-sensitive JC1 dye and treated with a panel of BH3 peptides. Percent depolarization is shown as the area under the curve (AUC) normalized to positive control fully depolarized mitochondria (FCCP). DMSO serves as the negative control. Data shown are representative of three independent experiments for each cell line derivative. (C) Same as in (B) except in this case the indicated JAK2^V617F positive cell lines were profiled to query their apoptotic dependencies. […] Blots are representative of three replicate experiments. (E) Twenty-four hours after transduction with the indicated ORFs, HMLE and HEL92.1.7 cells were stained with 7AAD and Annexin V to measure induction of apoptosis. Error bars indicate SD of three replicate experiments.
Cells were seeded in six-well plates and treated with either the indicated amount of drug or vehicle (DMSO). Cells were incubated for the indicated time, washed twice with ice-cold PBS, and resuspended in IX Annexin V binding buffer (10 mM HEPES, 140 mM NaCl, 2.5 mM CaCl2; BD Biosciences). Surface exposure of phosphatidylserine was measured using APC-conjugated Annexin V (BD Biosciences). […] Experiments were analyzed at 20,000 counts/sample using BD FACSVantage SE. […]
The conditions of test [6]: patients suffering from MPNs; cited from earlier work.

Consider `CN(C)CC[C@H](CSc1ccccc1)Nc1ccc(S(=O)(=O)NC(=O)c2ccc(N3CCN(Cc4ccccc4-c4ccc(Cl)cc4)CC3)cc2)cc1[N+](=O)[O-]` [ABT-737], for which the “responses relative to JAK inhibitor monotherapy” value in test [1] was “improved responses”. The “sensitivity of independently evolved JAK inhibitor-resistant cells compared to matched parental cells” value in test [2] (Set2-INCBR and Set2-CYTR vs Set2-Parental) is given as “equally sensitive”. Also, in test [2], the “sensitivity of parental and engineered Ras effector-activated cells (relative proliferation)” value is listed as “sensitive”. Also, in test [3], the “sensitivity of parental and engineered Ras effector-activated cells (viability and apoptosis)” value is given as “sensitive”.

As for `CC1(C)CCC(CN2CCN(c3ccc(C(=O)NS(=O)(=O)c4ccc(NCC5CCOCC5)c([N+](=O)[O-])c4)c(Oc4cnc5[nH]ccc5c4)c3)CC2)=C(c2ccc(Cl)cc2)C1` [ABT-199], the “sensitivity of parental and engineered Ras effector-activated cells (relative proliferation)” value in test [2] is “insensitive”. In test [3], the “sensitivity of parental and engineered Ras effector-activated cells (viability and apoptosis)” value is “insensitive”.

For the compound `N#CC[C@H](C1CCCC1)n1cc(-c2ncnc3[nH]ccc23)cn1` [INCB], the “BAD phosphorylation at Ser 112 and 136 in Ras-expressing cells” value in test [4] is on record as “remained phosphorylated”. Besides, the “induction of apoptosis (Annexin-V staining)” value in test [5] was “induces apoptosis”. Further, the “patients with transient reduction of spleen size and alleviation of some symptoms” value in test [6] is “about 50 % of patients”.

With `Cn1cnc2c(F)c(Nc3ccc(Br)cc3Cl)c(C(=O)NOCCO)cc21` [AZD-6244], in test [2], the “sensitization of resistant and parental Set2 cells to JAK inhibitors, co-inhibition of Akt and ERK pathways” value is recorded as “further sensitized”.

As for `NC1(c2ccc(-c3nc4ccn5c(=O)[nH]nc5c4cc3-c3ccccc3)cc2)CCC1` [MK-2206], the “resensitization of Set2-CYTR and Set2-INCBR cells to JAK inhibitors” value in test [2] (Akt inhibition with MK-2206 plus respective JAK inhibitor, compared with parental GI50 values) is recorded as “resensitized”. In addition, the “sensitization of resistant and parental Set2 cells to JAK inhibitors, co-inhibition of Akt and ERK pathways” value in test [2] was “further sensitized”. Besides, in test [3] (INCB plus second drug at constant concentration (MK-2206 10 μM; BEZ-235 0.2 μM)), the “resensitization of Akt-expressing cells to INCB” value was “fully resensitized”. The “resensitization of Ras-expressing cells to INCB, dual ERK and Akt inhibition” value in test [3] is on record as “resensitized”.

For `Cc1cnc(Nc2ccc(F)cc2Cl)nc1-c1c[nH]c(C(=O)N[C@H](CO)c2cccc(Cl)c2)c1` [VX-11E], in test [3], the “resensitization of Ras-expressing cells to INCB, dual ERK and Akt inhibition” value was “resensitized”.
